Measured values as given in patent publication US20250000855A1, “USE OF APOMORPHINE AS THERAPEUTIC AGENT FOR NECROPTOSIS-RELATED DISEASES” (INDUSTRY-ACADEMIC COOPERATION FOUNDATION, YONSEI UNIVERSITY, priority 2021, published 2025).

Columns and labels:
[1] = tested on: MLKL translocation in transfected THP-1 cells; experiment: Flag-MLKL translocation to cell membrane, immunofluorescent staining, confocal microscopy; assay type: cell-based, human; details: transfected THP-1 cells stimulated with compound and TBZ, FIG. 3
Description: A human monocyte cell line THP-1 and a human colon cancer cell line HT-29 were maintained in a 10% FBS-Roswell Park Memorial Institute (RPMI) 1640 medium supplemented with 2 mM L-glutamine, 100 U/ml penicillin, and 100 μg/ml streptomycin at 37° C. under a 5% CO2 condition. The THP-1 cells were differentiated into macrophages in an RPMI 1640 medium containing 500 nM Phorbol 12-myristate 13-acetate (PMA) for 3 hours. Human mixed lineage kinase domain-like protein (MLKL)-flag plasmid (Sino Biological, HG12810-CF) transfection was performed using the electroporation system (Invitrogen) of MicroPorator-mini (Digital Bio).
Cells were seeded on cell culture-treated glass chamber slides. The cells were pretreated with Z-VAD, BV6, and the indicated compound for 1 hour, and then treated with TNF-α and BV6 overnight. Subsequently, the cells were washed with phosphate-buffered saline (PBS) and fixed in 4% paraformaldehyde for 10 minutes. Before incubation for 10 minutes in 0.25% Triton X-100 in PBS, the cells were washed three more times with PBS. The cells were blocked with 5% bovine serum albumin (BSA) in PBS for 30 minutes and stained using an anti-Flag (Sigma, F7425-2MG) antibody. The nuclei were stained with DAPI (Invitrogen, 00-4959-52). Images were captured using a confocal microscope (Olympus, FV1000). […]

MLKL oligomerization = MLKL oligomerization (tetramer and octamer bands) by non-reducing or reducing SDS-PAGE; assay type: cell-based, human; details: cytoplasmic and membrane fractions, necroptosis induced with TBZ, FIG. 2 / FIG. 6A
Description: Cells were pretreated with Z-VAD (invivoGen, tlrl-vad) and a compound for 1 hour, and necroptosis was induced with TNF-α (ATGen, TNF0501) and BV6 (Biovision, B1332-5) for the indicated time. The prepared cells were appropriately treated according to analysis (Z-VAD: carbobenzoxy-valyl-alanyl-aspartyl, TNF-α: tumor necrosis factor-α, BV6: 4,4′-(1,6-hexanediyl)bis[N-methyl-L-alanyl-(2S)-2-cyclohexylglycyl-L-prolyl-β-phenyl-L-phenylalaninamide)
Cells were treated with a drug candidate and then collected using centrifugation at 4° C. and 1,500×g for 5 minutes. A supernatant was centrifuged again at 4° C. and 1,500×g for 5 minutes to remove remaining debris, concentrated at 4° C. and 14,000×g for 30 minutes using Amicon ultra-0.5 centrifugal filter unit 10K (Millipore, UFC501096), and stored. […] The extracted protein concentration was measured using a bicinchoninic acid (BCA) protein assay kit (Thermo Fisher Scientific, 23225). […]
To test whether the tetramer and octamer formation of p-MLKL for pore formation in the cell membrane is inhibited by apomorphine (APO), cells that had been treated with each molecule for the indicated time were separated into cytoplasmic and membrane fractions and analyzed through non-reducing or reducing sodium dodecyl sulfate-polyacrylamide gel electrophoresis (SDS-PAGE), and then investigated with specific antibodies (Experimental Method 1-6). […]

MLKL protein = target: T1, MLKL protein (Homo sapiens, UniProt Q8NB16); experiment: Surface plasmon resonance (SPR) analysis, binding to MLKL protein; details: MLKL immobilized on CM5 chip, Biacore T200, 25° C., 10 mM HEPES pH 7.4
T1 construct: purchased Abcam ab241453
T1 sequence (Q8NB16 1-471): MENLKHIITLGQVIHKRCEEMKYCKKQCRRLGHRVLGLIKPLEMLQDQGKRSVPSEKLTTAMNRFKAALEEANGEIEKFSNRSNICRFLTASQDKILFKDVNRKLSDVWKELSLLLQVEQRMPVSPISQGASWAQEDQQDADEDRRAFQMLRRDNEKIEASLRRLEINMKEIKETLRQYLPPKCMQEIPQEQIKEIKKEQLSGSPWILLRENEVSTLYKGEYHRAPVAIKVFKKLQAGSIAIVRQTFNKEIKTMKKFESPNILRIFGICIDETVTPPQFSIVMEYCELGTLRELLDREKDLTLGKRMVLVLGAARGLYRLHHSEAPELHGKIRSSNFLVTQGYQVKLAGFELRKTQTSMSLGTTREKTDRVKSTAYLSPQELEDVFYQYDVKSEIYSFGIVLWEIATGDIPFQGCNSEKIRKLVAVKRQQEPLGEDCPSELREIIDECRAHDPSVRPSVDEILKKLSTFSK
Description: (§1) The interaction between MLKL and apomorphine (=APO) was detected through surface plasmon resonance (SPR) analysis using Biacore T200 (GE Healthcare). For pH scouting, a buffer consisting of 10 mM sodium acetate (pH 4.0 to 6.0) was used. MLKL protein (Abcam, ab241453), and MLKL N-term (amino acids 1-154) protein that had been purified in a laboratory were immobilized on the surface of a sensor chip CM5 (GE Healthcare) under scouted buffer conditions. To deduce an Rligand value, a coupling process was performed based on the molecular weights of MLKL, MLKL N-term domain (MW ligand), and APO (MW analyte). Oxidized (24 hr, RT incubation) and reduced (+DTT(DL-dithiothreitol)) forms of APO were injected into a running buffer (flow rate: 10 μl/min) consisting of 10 mM HEPES (pH 7.4) at 25° C. A sensorgram was recorded and analyzed in real time using control software provided by the Biacore T200 system itself. Six or more concentrations of APO were used in combination, and each KD value was derived. All run data was calculated using BIAevaluation Software (GE Healthcare).
(§2) SPR analysis was used to analyze the interaction pattern between APO and the MLKL protein (Experimental Method 1-10). […] Here, the analysis was performed by binding MLKL and the MLKL N-term domain protein immobilized on a CM5 chip with APO having six concentrations.

[2] = target: T2, MLKL N-term domain (amino acids 1-154) (Homo sapiens, UniProt Q8NB16); experiment: Surface plasmon resonance (SPR) analysis, binding to MLKL N-term domain; details: MLKL N-term domain immobilized on CM5 chip, Biacore T200, 25° C., 10 mM HEPES pH 7.4
T2 construct: MLKL N-term (amino acids 1-154) protein that had been purified in a laboratory; made in house
T2 sequence (Q8NB16 1-154): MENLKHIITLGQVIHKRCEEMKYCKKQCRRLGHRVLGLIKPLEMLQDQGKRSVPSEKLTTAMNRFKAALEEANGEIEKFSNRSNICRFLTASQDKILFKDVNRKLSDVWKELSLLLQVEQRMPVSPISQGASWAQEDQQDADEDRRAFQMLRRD
Description: as §1, §2

Kd (MLKL protein)	Kd [2]	SMILES	distribution of Flag-MLKL signals [1]	intensities of the tetramer and octamer bands of MLKL (MLKL oligomerization)
–	–	CN1C(=O)C(Cc2c[nH]c3ccccc23)NC1=S (stereo not shown) [NEC-1, necrostatin-1]	mostly distributed in the cytoplasm	–
0.244 µM	1140 µM	CN1CCc2cccc3c2[C@H]1Cc1ccc(O)c(O)c1-3 [reduced APO]	–	no change
